Biological target: T1, α-7 nicotinic ACh receptor ion channel (Rattus norvegicus, UniProt Q05941)
T1 construct: expressed in transfected cells
Experiment: Ca2+-sensitive fluorescence-based FLIPR assay of α7 nicotinic receptor channel function (agonist activity)
Assay type: cell-based
Conditions: FLIPR α7-HI (EC50, nM), HEK 293 cells, Ca2+ flux
Experimental: II) A Ca^2+-Sensitive, Fluorescence-Based Assay α-7 for Nicotinic Acetylcholine Receptor Channel Function in Mammalian Cells (“FLIPR”).
Lead compounds are evaluated for agonist activity at α-7, α3β4, α4αβ2, and α1β1δ1ε sub-types of nicotinic ACh receptor ion channels expressed in mammalian HEK 293 cells. Agonist potency and efficacy values are determined from kinetic fluorescence Ca^2+ influx measurements made using a 384 well FLIPR (Fluorescence Image Plate Reader). […] In this assay, channel expressing HEK cell lines seeded in 384 well assay plates are loaded with a membrane permeant fluorescent Ca^2+ indicator dye, whose 510 nm green emission signal increases in response to elevation of intracellular Ca^2+ concentration. The basal fluorescence from the cells is monitored in real time, followed by the acute addition of test compounds.
Reagents: The acetomethoxy (AM) ester of the Ca^2+ indicator dye Fluo-4 was obtained from InVitrogen, (Carlsbad, Calif.). Acetylcholine and all buffer constituents were purchased from Sigma Chemical Company, St. Louis, Mo. G418 and Minimal Essential Medium were purchased from InVitrogen Life Technologies, Carlsbad, Calif. Fetal bovine serum was purchased from (InVitrogen, Carlsbad, Calif.).
HEK-293 cells were grown in Minimal Essential Medium containing 10% (v/v) fetal bovine serum at 37° C. in a 5% CO2 incubator. HEK-293 cells stably expressing the ion channels were grown in the same medium with the addition of 500 μg/ml G418.
HEK-293 cells expressing the ion channels of interest were plated in 384 well, black-walled, clear-bottomed, poly-D-lysine coated plates at a density of ˜20,000 cells/well in 20 μl of Minimal Essential Medium containing 10% (v/v) fetal bovine serum and incubated for 2 days at 29° C. in a 5% CO2 incubator. Prior to assay, cells were loaded with the Fluo-4 AM ester. […] Dye loading was allowed to proceed for 90 minutes at room temperature at which time the dye loading solution was removed and replaced with 40 μl/well of Hanks buffer. Cells loaded with dye were loaded onto a FLIPR384 (Molecular Devices, Sunnyvale, Calif.). […] Emission was filtered using a 540+/−30 nm bandpass filter. For evaluation of the effects of test compounds using the Ca^2+ flux assay, compounds to be tested were provided in assay ready plates. For nicotinic receptor ion channel expressing cells, the assay was initiated by the addition of 20 μl/well of Hanks buffer containing test compounds. For all assays, data were collected at 1 Hz for 10 seconds (baseline), at which time the compound containing stimulus buffers are added, and further measurements collected at 0.33 Hz for 3 min.
The statistical robustness of the nicotinic receptor Ca^2+ flux assays is determined from blanks and totals wells. […] The raw fluorescence units data files generated on the FLIPR plate reader are automatically exported and processed by in-house data analysis tools. The reduced percent activation data for each concentration of test compound are fit using MathIQ fitting engine (ID Business Solutions Limited, Surrey, UK). Data were analyzed by fitting maximum amplitudes of change in fluorescence, for Ca^2+ flux for a given condition of test compound. […] Test compound efficacy values (Ymax values) are expressed relative to a maximal response to acetylcholine in the total wells.

T1 sequence (Q05941 23-502): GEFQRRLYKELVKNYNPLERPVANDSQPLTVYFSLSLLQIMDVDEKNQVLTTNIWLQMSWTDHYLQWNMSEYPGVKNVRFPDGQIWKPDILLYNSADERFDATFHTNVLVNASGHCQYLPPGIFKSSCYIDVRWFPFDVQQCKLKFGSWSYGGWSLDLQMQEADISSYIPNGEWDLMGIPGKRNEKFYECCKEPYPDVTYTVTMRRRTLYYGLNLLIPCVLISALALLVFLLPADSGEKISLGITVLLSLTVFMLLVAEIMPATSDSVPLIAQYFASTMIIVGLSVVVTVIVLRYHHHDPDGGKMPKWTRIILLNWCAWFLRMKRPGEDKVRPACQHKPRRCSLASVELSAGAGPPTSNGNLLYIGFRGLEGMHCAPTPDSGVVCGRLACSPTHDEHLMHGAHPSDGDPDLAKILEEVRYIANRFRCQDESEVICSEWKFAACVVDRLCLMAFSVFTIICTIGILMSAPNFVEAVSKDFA

Row | Compound | EC50 (Table 1, activity class) | further results
1 | CN1C(Nc2ccc(Cl)cn2)=NCC12CN1CCC2CC1 (stereo not shown) [Example 14] | 1000 to 100000 nM | 
2 | c1ccc2sc(NC3=NCC4(CN5CCC4CC5)N3)nc2c1 (single isomer, unassigned) [Example 11a] | < 100 nM | 
3 | c1cnc2sc(NC3=NCC4(CN5CCC4CC5)N3)nc2c1 (stereo not shown) [Example 56] | < 100 nM | 
4 | c1ccc2oc(NC3=NCC4(CN5CCC4CC5)N3)nc2c1 (stereo not shown) [Example 59] | < 100 nM | 
5 | CN1CC2(CN3CCC2CC3)O/C1=N\c1ncc(-c2ccccc2)s1 (stereo not shown) [Example 90, (Z)—N-(3-Methyl-1′-azaspiro[oxazolidine-5,3′-bicyclo[2.2.2]octane]-2-ylidene)-5-phenylthiazol-2-amine] |  | EC50 (Table 4, activity class): 100 to 1000 nM
6 | COc1ccc2nc(NC3=NCC4(CN5CCC4CC5)N3C)sc2n1 (stereo not shown) [Example 47] | 100 to 1000 nM | 
7 | c1ccn2nc(NC3=NCC4(CN5CCC4CC5)N3)nc2c1 (stereo not shown) [Example 34] | 100 to 1000 nM | 
8 | c1ccc2cc(NC3=NCCC4(CN5CCC4CC5)O3)ncc2c1 (single isomer, unassigned) [Example 76a] |  | EC50 (Table 3, activity class): 100 to 1000 nM
9 | CN1C(Nc2nc3ccc(Br)nc3s2)=NCC12CN1CCC2CC1 (stereo not shown) [Example 50] | 1000 to 100000 nM | 
10 | Brc1ccc2nc(NC3=NCC4(CN5CCC4CC5)N3)sc2n1 (stereo not shown) [Example 49] | 100 to 1000 nM | 
11 | c1ccn2cc(NC3=NCC4(CN5CCC4CC5)N3)nc2c1 (stereo not shown) [Example 37] | 1000 to 100000 nM | 
12 | Cc1nnc(NC2=NCCC3(CN4CCC3CC4)O2)nc1C (stereo not shown) [Example 81] |  | EC50 (Table 3, activity class): 1000 to 100000 nM
13 | c1ccc(-c2cnc(NC3=NCCC4(CN5CCC4CC5)O3)s2)cc1 (stereo not shown) [Example 71] |  | EC50 (Table 3): 87 nM; EC50 (Table 3, activity class): < 100 nM
14 | c1ccc2nc(NC3=NCCC4(CN5CCC4CC5)O3)cnc2c1 (stereo not shown) [Example 85] |  | EC50 (Table 3, activity class): 1000 to 100000 nM
15 | CN1C(Nc2ncc(Cl)cn2)=NCC12CN1CCC2CC1 (stereo not shown) [Example 18] | 100 to 1000 nM | 
16 | CN1C(Nc2nccs2)=NCC12CN1CCC2CC1 (stereo not shown) [Example 10] | 1000 to 100000 nM | 
17 | Cc1ccc2c(NC3=NCC4(CN5CCC4CC5)N3)ncnn12 (stereo not shown) [Example 64] | 100 to 1000 nM | 
18 | CN(C)c1ccc2nc(NC3=NCC4(CN5CCC4CC5)N3)sc2n1 (stereo not shown) [Example 48, N˜2˜-(1′,5′-Dihydrospiro[4-azabicyclo[2.2.2]octane-2,4′-imidazol]-2′-yl)-N˜5˜,N˜5˜-dimethyl[1,3]thiazolo[5,4-b]pyridine-2,5-diamine] | 1000 to 100000 nM | 
19 | Clc1ccc(NC2=NCCC3(CN4CCC3CC4)O2)nn1 (stereo not shown) [Example 83] |  | EC50 (Table 3, activity class): 1000 to 100000 nM
20 | c1csc(NC2=NCC3(CN4CCC3CC4)N2)n1 (stereo not shown) [Example 9] | 1000 to 100000 nM | EC50: 1060 nM
21 | CN1C(Nc2ccc(Cl)nn2)=NCC12CN1CCC2CC1 (stereo not shown) [Example 26] | 100 to 1000 nM | 
22 | COc1ccc2nc(NC3=NCCC4(CN5CCC4CC5)O3)sc2c1 (stereo not shown) [Example 70, N-(6-Methoxybenzo[d]thiazol-2-yl)-4,5-dihydro-1′-azaspiro[[1,3]oxazine-6,3′-bicyclo[2.2.2]octan]-2-amine] |  | EC50 (Table 3, activity class): 100 to 1000 nM
23 | Clc1ccc2c(NC3=NCC4(CN5CCC4CC5)N3)ncnn12 (stereo not shown) [Example 65, N-(7-Chloropyrrolo[1,2-f][1,2,4]triazin-4-yl)-3,5-dihydro-1′-azaspiro[imidazole-4,3′-bicyclo[2.2.2]octan]-2-amine] | 100 to 1000 nM | 
24 | Fc1cccc2sc(NC3=NCC4(CN5CCC4CC5)N3)nc12 (stereo not shown) [Example 55] | < 100 nM | 
25 | c1ccc(COc2ccc3nc(NC4=NC5(CN4)CN4CCC5CC4)sc3n2)cc1 (stereo not shown) [Example 39, N-(5-(benzyloxy)[1,3]thiazolo[5,4-b]pyridin-2-yl)-1′,5′-dihydrospiro[4-azabicyclo[2.2.2]octane-2,4′-imidazol]-2′-amine] | > 1e+06 nM | 
26 | Clc1cnc(NC2=NCCC3(CN4CCC3CC4)O2)cn1 (stereo not shown) [Example 72, N-(5-Chloropyrazin-2-yl)-4,5-dihydro-1′-azaspiro[[1,3]oxazine-6,3′-bicyclo[2.2.2]octan]-2-amine] |  | EC50 (Table 3, activity class): 1000 to 100000 nM

Row | Compound | EC50 (Table 1, activity class) | further results
27 | CN1C(Nc2nc3ccccc3s2)=NCC12CN1CCC2CC1 (stereo not shown) [Example 12] | 100 to 1000 nM | 
28 | Clc1ccc(NC2=NCCC3(CN4CCC3CC4)O2)nc1 (stereo not shown) [Example 75] |  | EC50 (Table 3, activity class): 1000 to 100000 nM
29 | COc1ccc2nc(NC3=NCC4(CN5CCC4CC5)N3C)sc2c1 (stereo not shown) [Example 2] | 100 to 1000 nM | 
30 | COc1ccc2nc(NC3=NCC4(CN5CCC4CC5)N3)sc2n1 (stereo not shown) [Example 46] | 100 to 1000 nM | 
31 | CN1C(Nc2nc3cc(Cl)ccc3o2)=NCC12CN1CCC2CC1 (stereo not shown) [Example 58] | 100 to 1000 nM | 
32 | Cc1ccc2nc(NC3=NCC4(CN5CCC4CC5)N3)oc2n1 (stereo not shown) [Example 62, N-(3,5-Dihydro-1′-azaspiro[imidazole-4,3′-bicyclo[2.2.2]octane]-2-yl)-5-methyloxazolo[5,4-b]pyridin-2-amine] | 100 to 1000 nM | 
33 | CN1C(Nc2nc3ccccc3o2)=NCC12CN1CCC2CC1 (stereo not shown) [Example 60] | 100 to 1000 nM | 
34 | COc1cc(NC2=NCCC3(CN4CCC3CC4)O2)ncn1 (stereo not shown) [Example 80] |  | EC50 (Table 3): 3650 nM; EC50 (Table 3, activity class): 1000 to 100000 nM
35 | c1ccc2nc(NC3=NCCC4(CN5CCC4CC5)O3)ccc2c1 (stereo not shown) [Example 86] |  | EC50 (Table 3): 1810 nM; EC50 (Table 3, activity class): 1000 to 100000 nM
36 | Fc1ccc2nc(NC3=NCC4(CN5CCC4CC5)N3)sc2n1 (stereo not shown) [Example 44, N-(5-Fluoro[1,3]thiazolo[5,4-b]pyridin-2-yl)-1′,5′-dihydrospiro[4-azabicyclo[2.2.2]octane-2,4′-imidazol]-2′-amine] | 100 to 1000 nM | 
37 | CN1C(Nc2ncnc3ccccc23)=NCC12CN1CCC2CC1 (stereo not shown) [Example 24] | 1000 to 100000 nM | 
38 | Clc1ccc2nc(NC3=NCC4(CN5CCC4CC5)N3)sc2n1 (single isomer, unassigned) [Example 28b] | 1000 to 100000 nM | 
39 | Cc1ccc2nc(NC3=NCC4(CN5CCC4CC5)N3)oc2c1 (stereo not shown) [Example 8a] | < 100 nM | 
40 | CN1C(Nc2ncc3ccccc3n2)=NCC12CN1CCC2CC1 (stereo not shown) [Example 27] | 1000 to 100000 nM | 
41 | CN1C(Nc2nc3ccc(Cl)nc3s2)=NCC12CN1CCC2CC1 (stereo not shown) [Example 29] | 100 to 1000 nM | 
42 | Brc1ccc2c(NC3=NCC4(CN5CCC4CC5)N3)ncnn12 (stereo not shown) [Example 66] | 100 to 1000 nM | 
43 | c1ccc2cc(NC3=NCCC4(CN5CCC4CC5)O3)ncc2c1 (stereo not shown) [Example 76] |  | EC50 (Table 3): 264 nM; EC50 (Table 3, activity class): 100 to 1000 nM
44 | c1cnc2sc(NC3=NCC4(CN5CCC4CC5)N3)nc2n1 (stereo not shown) [Example 32, N-[1,3]Thiazolo[4,5-b]pyrazin-2-yl-1′,5′-dihydrospiro[4-azabicyclo[2.2.2]octane-2,4′-imidazol]-2′-amine] | 100 to 1000 nM | 
45 | COc1ccc2nc(NC3=NC4(CO3)CN3CCC4CC3)sc2c1 (stereo not shown) [Example 67, N-(6-Methoxybenzo[d]thiazol-2-yl)-5H-1′-azaspiro[oxazole-4,3′-bicyclo[2.2.2]octan]-2-amine] |  | EC50 (Table 2, activity class column): 1000 to 100000 nM
46 | Brc1ccc2nc(NC3=NCCC4(CN5CCC4CC5)O3)sc2n1 (stereo not shown) [Example 87] |  | EC50 (Table 3, activity class): 1000 to 100000 nM
47 | Cc1ccc2nc(NC3=NCC4(CN5CCC4CC5)N3)sc2c1 (stereo not shown) [Example 63, N-(3,5-dihydro-1′-azaspiro[imidazole-4,3′-bicyclo[2.2.2]octane]-2-yl)-6-methylbenzo[d]thiazol-2-amine] | 100 to 1000 nM | 
48 | COc1ccc2nc(NC3=NCC4(CN5CCC4CC5)N3)sc2c1 (stereo not shown) [Example 1, N-(6-Methoxy-1,3-benzothiazol-2-yl)-1′,5′-dihydrospiro[4-azabicyclo[2.2.2]octane-2,4′-imidazol]-2′-amine] | 100 to 1000 nM | 
49 | O=c1ccc2nc(NC3=NCC4(CN5CCC4CC5)N3)sc2[nH]1 (stereo not shown) [Example 42, 2-(1′,5′-Dihydrospiro[4-azabicyclo[2.2.2]octane-2,4′-imidazol]-2′-ylamino)[1,3]thiazolo[5,4-b]pyridin-5 (4H)-one] | 100 to 1000 nM | 
50 | Cc1ccc2nc(NC3=NCC4(CN5CCC4CC5)N3)oc2c1 (stereo not shown) [Example 8b] | 1000 to 100000 nM | 
51 | Clc1cccc2nc(NC3=NCC4(CN5CCC4CC5)N3)sc12 (stereo not shown) [Example 53] | 100 to 1000 nM | 
52 | c1csc(NC2=NCCC3(CN4CCC3CC4)O2)n1 (stereo not shown) [Example 73] |  | EC50 (Table 3): 4530 nM; EC50 (Table 3, activity class): 1000 to 100000 nM

— patent publication US9458179B2, “Quinuclidine, 1-azabicyclo[2.2.1]heptane, 1-azabicyclo [3.2.1]octane, and 1-azabicyclo[3.2.2]nonane compounds as alpha-7 nicotinic acetylcholine receptor ligands” (BRISTOL-MYERS SQUIBB COMPANY, priority 2012, dated 2016)
